Measured values from US5320825A, “Serotonin reuptake inhibitors for S.P.E.C.T. imaging” (Trustees of the University of Pennsylvania, priority 1991, dated 1994).
Structures can show the parent of a compound that is named as a salt. Where two headings read alike, the source gives them in different places.

How the values were obtained:
[1] = system: rat brain sections; settings: ex vivo autoradiography, 2 hr. post i.v. injection, paroxetine 10 mg/Kg, i.p.
[2] = system: prefrontal cortex membrane of rat brain; settings: in vitro
[3] = for Biodistribution, Blood / Biodistribution, Brain / Biodistribution, Heart / Biodistribution, Kidney / Biodistribution, Liver / Biodistribution, Lung / Biodistribution, Muscle / Biodistribution, Skin / Biodistribution, Spleen / Biodistribution, Thyroid: rat, iv
[4] = molecular target: norepinephrine (NE) reuptake system; settings: rat synaptosomes; read-out: Inhibition of monoamine uptake, NE (Ki); cited from earlier work
[5] = molecular target: dopamine (DA) reuptake system; settings: read-out: Inhibition of monoamine uptake, DA (Ki), cited from earlier work
[6] = molecular target: serotonin reuptake system (5-HT); settings: read-out: Inhibition of monoamine uptake, 5-HT (Ki), cited from earlier work
[7] = molecular target: T1, serotonin reuptake sites (Rattus norvegicus, UniProt P31652); assay: in vitro competitive binding assay, serotonin uptake sites, [3H]-Paroxetine
T1 construct: in rat brain tissue preparation; from tissue
Excerpt: (§1) The affinity of the compounds prepared in Examples 1-4 to serotonin and norepinephrine uptake sites was studied using in vitro competitive binding assays.

[8] = molecular target: norepinephrine reuptake sites (Rattus norvegicus, UniProt Q63380); assay: in vitro competitive binding assay, norepinephrine uptake sites, [3H]-Nisoxetine; settings: rat brain tissue preparation
Excerpt: as §1

[9] = Biodistribution of compound 7 in rats after an iv injection; format: in vivo; settings: rat
Method: The biodistribution of [R]-(-)-N-methyl-3-phenyl-3-(4-^123 I-2-methylphenoxy)propylamine hydrochloride (compound 7) in rats, after intravenous injection, was analyzed. Results are presented in Table 4 and indicate that moderate brain uptake (0.64-0.84% dose/organ) is found consistently throughout the two hour period.

[10] = n = 3, 2nd time column (time not given)
[11] = n = 3, 4th time column (time not given)

Sequence of norepinephrine reuptake sites (Q63380 1-617): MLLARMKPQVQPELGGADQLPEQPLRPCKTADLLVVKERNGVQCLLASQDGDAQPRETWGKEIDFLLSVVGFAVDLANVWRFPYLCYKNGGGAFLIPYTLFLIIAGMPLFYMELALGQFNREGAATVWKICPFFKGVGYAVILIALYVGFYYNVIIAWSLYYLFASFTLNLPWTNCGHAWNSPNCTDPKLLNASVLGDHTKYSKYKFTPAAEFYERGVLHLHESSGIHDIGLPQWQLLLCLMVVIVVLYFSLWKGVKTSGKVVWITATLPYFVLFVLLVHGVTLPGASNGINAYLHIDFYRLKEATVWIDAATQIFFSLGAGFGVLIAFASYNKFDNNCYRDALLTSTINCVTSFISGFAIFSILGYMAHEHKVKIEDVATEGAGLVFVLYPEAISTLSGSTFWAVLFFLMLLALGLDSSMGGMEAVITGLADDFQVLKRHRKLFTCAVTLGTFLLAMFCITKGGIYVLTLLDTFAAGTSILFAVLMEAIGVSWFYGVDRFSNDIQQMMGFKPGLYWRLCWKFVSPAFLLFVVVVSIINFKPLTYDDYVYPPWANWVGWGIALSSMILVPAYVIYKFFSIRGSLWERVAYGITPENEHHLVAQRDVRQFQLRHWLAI
T1 sequence (P31652 whole entry): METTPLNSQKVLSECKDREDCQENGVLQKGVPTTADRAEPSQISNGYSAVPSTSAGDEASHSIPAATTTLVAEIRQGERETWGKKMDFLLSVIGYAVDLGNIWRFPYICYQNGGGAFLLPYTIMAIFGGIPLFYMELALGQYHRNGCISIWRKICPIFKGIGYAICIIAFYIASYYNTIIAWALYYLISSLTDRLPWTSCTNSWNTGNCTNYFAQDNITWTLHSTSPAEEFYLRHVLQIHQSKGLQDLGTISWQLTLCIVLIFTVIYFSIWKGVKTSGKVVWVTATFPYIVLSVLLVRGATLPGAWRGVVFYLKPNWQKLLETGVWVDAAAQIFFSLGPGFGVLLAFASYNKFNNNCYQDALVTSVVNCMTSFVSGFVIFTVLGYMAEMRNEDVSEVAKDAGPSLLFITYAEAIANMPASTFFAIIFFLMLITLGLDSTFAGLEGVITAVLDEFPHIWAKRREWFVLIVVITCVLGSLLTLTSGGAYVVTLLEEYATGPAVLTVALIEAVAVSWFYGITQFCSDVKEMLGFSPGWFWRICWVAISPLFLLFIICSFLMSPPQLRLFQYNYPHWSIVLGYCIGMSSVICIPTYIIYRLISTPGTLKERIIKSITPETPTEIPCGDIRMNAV

Q: For `CNCCC(Oc1ccc(C(F)(F)F)cc1)c1ccc([125I])cc1` (racemic) [Compound 15, iodo-fluoxetine], which “regional distribution pattern in rat brain sections, effect of paroxetine pretreatment” value [1] is on record?
A: not altered by pretreatment of paroxetine

Q: What about the non-specific binding [2] of the same compound?
A: strong non-specific binding

Q: And the initial brain uptake ([3]; 2 min.)?
A: 0.68 % dose/organ

Q: What about the brain retention ([3]; 8 hr.) of the same compound?
A: 0.63 % dose/organ

Q: And the “Biodistribution, Blood” value ([3]; 2 min.)?
A: 3.03 ± 0.40 % dose/organ

Q: What about the “Biodistribution, Brain” value ([3]; 2 min.) of the same compound?
A: 0.61 ± 0.12 % dose/organ

Q: And the “Biodistribution, Heart” value ([3]; 2 min.)?
A: 2.27 ± 0.31 % dose/organ

Q: What about the “Biodistribution, Kidney” value ([3]; 2 min.) of the same compound?
A: 4.16 ± 0.36 % dose/organ

Q: What about the “Biodistribution, Liver” value ([3]; 2 min.) of the same compound?
A: 15.92 ± 2.41 % dose/organ

Q: What about the “Biodistribution, Lung” value ([3]; 2 min.) of the same compound?
A: 11.09 ± 2.32 % dose/organ

Q: What about the “Biodistribution, Muscle” value ([3]; 2 min.) of the same compound?
A: 12.71 ± 5.3 % dose/organ

Q: And the “Biodistribution, Skin” value ([3]; 2 min.)?
A: 4.90 ± 0.50 % dose/organ

Q: And the “Biodistribution, Spleen” value ([3]; 2 min.)?
A: 0.61 ± 0.06 % dose/organ

Q: And the “Biodistribution, Thyroid” value ([3]; 2 min.)?
A: 0.10 ± 0.04 % dose/organ

Q: And the “Biodistribution, Blood” value ([3]; 15 min.)?
A: 1.71 ± 0.31 % dose/organ

Q: And the “Biodistribution, Brain” value ([3]; 15 min.)?
A: 0.68 ± 0.02 % dose/organ

Q: What about the “Biodistribution, Heart” value ([3]; 15 min.) of the same compound?
A: 1.14 ± 0.04 % dose/organ

Q: And the “Biodistribution, Kidney” value ([3]; 15 min.)?
A: 4.05 ± 0.44 % dose/organ

Q: And the “Biodistribution, Liver” value ([3]; 15 min.)?
A: 16.27 ± 2.35 % dose/organ

Q: And the “Biodistribution, Lung” value ([3]; 15 min.)?
A: 6.77 ± 0.25 % dose/organ

Q: And the “Biodistribution, Muscle” value ([3]; 15 min.)?
A: 16.01 ± 4.55 % dose/organ

Q: What about the “Biodistribution, Skin” value ([3]; 15 min.) of the same compound?
A: 5.84 ± 0.95 % dose/organ

Q: What about the “Biodistribution, Spleen” value ([3]; 15 min.) of the same compound?
A: 0.93 ± 0.15 % dose/organ

Q: What about the “Biodistribution, Thyroid” value ([3]; 15 min.) of the same compound?
A: 0.07 ± 0.03 % dose/organ

Q: And the “Biodistribution, Blood” value ([3]; 60 min.)?
A: 3.16 ± 0.36 % dose/organ

Q: What about the “Biodistribution, Brain” value ([3]; 60 min.) of the same compound?
A: 0.78 ± 0.01 % dose/organ

Q: And the “Biodistribution, Heart” value ([3]; 60 min.)?
A: 0.43 ± 0.05 % dose/organ

Q: What about the “Biodistribution, Kidney” value ([3]; 60 min.) of the same compound?
A: 2.32 ± 0.38 % dose/organ

Q: What about the “Biodistribution, Liver” value ([3]; 60 min.) of the same compound?
A: 17.64 ± 1.88 % dose/organ

Q: What about the “Biodistribution, Lung” value ([3]; 60 min.) of the same compound?
A: 7.32 ± 0.45 % dose/organ

Q: What about the “Biodistribution, Muscle” value ([3]; 60 min.) of the same compound?
A: 22.63 ± 4.48 % dose/organ

Q: What about the “Biodistribution, Skin” value ([3]; 60 min.) of the same compound?
A: 10.76 ± 2.85 % dose/organ

Q: What about the “Biodistribution, Spleen” value ([3]; 60 min.) of the same compound?
A: 1.20 ± 0.13 % dose/organ

Q: And the “Biodistribution, Thyroid” value ([3]; 60 min.)?
A: 0.08 ± 0.01 % dose/organ

Q: What about the “Biodistribution, Blood” value ([3]; 120 min.) of the same compound?
A: 3.62 ± 0.24 % dose/organ

Q: And the “Biodistribution, Brain” value ([3]; 120 min.)?
A: 0.84 ± 0.073 % dose/organ

Q: And the “Biodistribution, Heart” value ([3]; 120 min.)?
A: 0.48 ± 0.02 % dose/organ

Q: What about the “Biodistribution, Kidney” value ([3]; 120 min.) of the same compound?
A: 1.82 ± 0.21 % dose/organ

Q: And the “Biodistribution, Liver” value ([3]; 120 min.)?
A: 11.55 ± 0.78 % dose/organ

Q: And the “Biodistribution, Lung” value ([3]; 120 min.)?
A: 7.21 ± 0.36 % dose/organ

Q: And the “Biodistribution, Muscle” value ([3]; 120 min.)?
A: 24.22 ± 0.68 % dose/organ

Q: What about the “Biodistribution, Skin” value ([3]; 120 min.) of the same compound?
A: 10.08 ± 0.78 % dose/organ

Q: What about the “Biodistribution, Spleen” value ([3]; 120 min.) of the same compound?
A: 1.09 ± 0.07 % dose/organ

Q: And the “Biodistribution, Thyroid” value ([3]; 120 min.)?
A: 0.10 ± 0.02 % dose/organ

Q: What about the “Biodistribution, Blood” value ([3]; 240 min.) of the same compound?
A: 4.99 ± 0.70 % dose/organ

Q: What about the “Biodistribution, Brain” value ([3]; 240 min.) of the same compound?
A: 0.70 ± 0.031 % dose/organ

Q: And the “Biodistribution, Heart” value ([3]; 240 min.)?
A: 0.28 ± 0.01 % dose/organ

Q: What about the “Biodistribution, Kidney” value ([3]; 240 min.) of the same compound?
A: 1.18 ± 0.17 % dose/organ

Q: What about the “Biodistribution, Liver” value ([3]; 240 min.) of the same compound?
A: 11.52 ± 0.91 % dose/organ

Q: What about the “Biodistribution, Lung” value ([3]; 240 min.) of the same compound?
A: 7.57 ± 2.36 % dose/organ

Q: And the “Biodistribution, Muscle” value ([3]; 240 min.)?
A: 20.38 ± 2.67 % dose/organ

Q: What about the “Biodistribution, Skin” value ([3]; 240 min.) of the same compound?
A: 8.27 ± 0.75 % dose/organ

Q: And the “Biodistribution, Spleen” value ([3]; 240 min.)?
A: 0.71 ± 0.11 % dose/organ

Q: And the “Biodistribution, Thyroid” value ([3]; 240 min.)?
A: 0.14 ± 0.001 % dose/organ

Q: What about the “Biodistribution, Blood” value ([3]; 480 min.) of the same compound?
A: 7.61 ± 1.11 % dose/organ

Q: And the “Biodistribution, Brain” value ([3]; 480 min.)?
A: 0.61 ± 0.07 % dose/organ

Q: And the “Biodistribution, Heart” value ([3]; 480 min.)?
A: 0.32 ± 0.03 % dose/organ

Q: What about the “Biodistribution, Kidney” value ([3]; 480 min.) of the same compound?
A: 1.11 ± 0.06 % dose/organ

Q: And the “Biodistribution, Liver” value ([3]; 480 min.)?
A: 16.47 ± 2.03 % dose/organ

Q: And the “Biodistribution, Lung” value ([3]; 480 min.)?
A: 5.00 ± 0.46 % dose/organ

Q: And the “Biodistribution, Muscle” value ([3]; 480 min.)?
A: 19.90 ± 2.61 % dose/organ

Q: And the “Biodistribution, Skin” value ([3]; 480 min.)?
A: 10.78 ± 0.07 % dose/organ

Q: And the “Biodistribution, Spleen” value ([3]; 480 min.)?
A: 0.52 ± 0.048 % dose/organ

Q: What about the “Biodistribution, Thyroid” value ([3]; 480 min.) of the same compound?
A: 0.22 ± 0.06 % dose/organ

Q: What about the initial heart uptake ([3]; rats, 2 min. post injection) of the same compound?
A: 2.3%

Q: And the heart uptake ([3]; rats, 8 hr. post injection)?
A: 0.3%

Q: What does the source list for `CN[C@@H]1C[C@H](c2ccc(Cl)c(Cl)c2)c2ccccc21` (relative stereo) [Indatraline cis, Indatraline]?
A: Ki [4]: 34 nM; Ki [5]: 860 nM; Ki [6]: 0.03 nM

Q: With `CN[C@@H]1C[C@@H](c2ccc(Cl)c(Cl)c2)c2ccccc21` (relative stereo) [Indatraline trans, Indatraline] as the compound, how does the Ki [4] read?
A: 90 nM

Q: What about the Ki [5] of the same compound?
A: 2000 nM

Q: What about the Ki [6] of the same compound?
A: 0.58 nM

Q: What does the source list for `CNCC[C@@H](Oc1cccc(I)c1)c1ccccc1` [Compound 4, [R]-(-)-N-Methyl-3-phenyl-3-(3-iodophenoxy)propylamine]?
A: Ki [7]: 0.8 nM; IC50 [8]: 500 nM

Q: Which “Biodistribution, Blood” value [9, 10] does the source give for `CNCC[C@@H](Oc1ccc(I)cc1C)c1ccccc1.Cl` [Compound 7, [R]-(-)-N-Methyl-3-phenyl-3-(4-iodo-2-methylphenoxy)propylamine hydrochloride] here?
A: 2.19 ± 0.32 % dose/organ

Q: What about the “Biodistribution, Brain” value [9, 10] of the same compound?
A: 0.80 ± 0.04 % dose/organ

Q: And the “Biodistribution, Heart” value [9, 10]?
A: 0.55 ± 0.04 % dose/organ

Q: And the “Biodistribution, Kidney” value [9, 10]?
A: 2.70 ± 0.48 % dose/organ

Q: What about the “Biodistribution, Lung” value [9, 10] of the same compound?
A: 9.36 ± 1.52 % dose/organ

Q: What about the “Biodistribution, Skin” value [9, 10] of the same compound?
A: 6.75 ± 1.35 % dose/organ

Q: What about the “Biodistribution, Spleen” value [9, 10] of the same compound?
A: 1.09 ± 0.32 % dose/organ

Q: What about the “Biodistribution, Thyroid” value [9, 10] of the same compound?
A: 0.07 ± 0.02 % dose/organ

Q: What about the “Biodistribution, Blood” value [9, 11] of the same compound?
A: 2.39 ± 0.33 % dose/organ

Q: And the “Biodistribution, Brain” value [9, 11]?
A: 0.68 ± 0.01 % dose/organ

Q: What about the “Biodistribution, Kidney” value [9, 11] of the same compound?
A: 1.12 ± 0.44 % dose/organ

Q: What about the “Biodistribution, Lung” value [9, 11] of the same compound?
A: 6.81 ± 0.76 % dose/organ

Q: And the “Biodistribution, Skin” value [9, 11]?
A: 6.92 ± 0.83 % dose/organ

Q: What about the “Biodistribution, Spleen” value [9, 11] of the same compound?
A: 0.79 ± 0.05 % dose/organ

Q: What about the brain uptake ([9]; throughout the two hour period) of the same compound?
A: 0.64-0.84 % dose/organ

Q: And the Ki [7]?
A: 5 nM

Q: And the IC50 [8]?
A: 20 nM

Q: Which results are given for `CNCC[C@H](Oc1cccc(I)c1)c1ccccc1` [Compound 11, [S]-(+)-N-Methyl-3-phenyl-3-(3-iodophenoxy)propylamine]?
A: Ki ([7]; rat brain tissue preparation, [3H]-Paroxetine, read-out: Serotonin Uptake [3H]-Paroxetine Ki): 8.2 nM; IC50 [8]: 7000 nM

Q: Which Ki [7] does the source give for `CNCC[C@H](Oc1ccc(I)cc1C)c1ccccc1` [Compound 14, {S}-(+)-N-Methyl-3-phenyl-3-(4-iodo-2-methylphenoxy)propylamine hydrochloride] here?
A: 0.8 nM

Q: And the IC50 [8]?
A: 9 nM

Q: Which Ki [5] does the source give for `CNCCC(Oc1ccc(C(F)(F)F)cc1)c1ccccc1` (stereo not shown) [Fluoxetine] here?
A: 1590 nM

Q: With `CNCCC(Oc1ccccc1OC)c1ccccc1` (stereo not shown) [Nisoxetine] as the compound, how does the Ki [4] read?
A: 670 nM

Q: What about the Ki ([5]; rat synaptosomes) of the same compound?
A: 365 nM

Q: What about the Ki ([6]; rat synaptosomes) of the same compound?
A: 3.8 nM

Q: Which Ki [4] does the source give for `Fc1ccc([C@@H]2CCNC[C@H]2COc2ccc3c(c2)OCO3)cc1` [Paroxetine] here?
A: 350 nM

Q: Which Ki [4] does the source give for `CN[C@@H]1CC[C@@H](c2ccccc2)c2ccccc21` [Tametraline] here?
A: 20 nM

Q: And the Ki ([5]; rat synaptosomes)?
A: 60 nM

Q: What about the Ki ([6]; rat synaptosomes) of the same compound?
A: 50 nM
